# Data: paper PMC6934184, “Selective DNA-PKcs inhibition extends the therapeutic index of localized radiotherapy and chemotherapy” (The Journal of Clinical Investigation, 2019)
# Biological target: T1, FGFR4 (Homo sapiens, UniProt P22455)
# T1 construct: purchased Thermo Fisher Scientific (Life Technologies) SelectScreen
# Test: SelectScreen Z'LYTE
# Assay type: biochemical
# Method in brief: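 Percent values come from Thermo SelectScreen profiling of NU5455, combining activity and binding assays. CSF1R was run in Z'LYTE format at Km app ATP, and CAMK1 in Adapta format with ATP listed at 10.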
# T1 sequence (P22455 22-802): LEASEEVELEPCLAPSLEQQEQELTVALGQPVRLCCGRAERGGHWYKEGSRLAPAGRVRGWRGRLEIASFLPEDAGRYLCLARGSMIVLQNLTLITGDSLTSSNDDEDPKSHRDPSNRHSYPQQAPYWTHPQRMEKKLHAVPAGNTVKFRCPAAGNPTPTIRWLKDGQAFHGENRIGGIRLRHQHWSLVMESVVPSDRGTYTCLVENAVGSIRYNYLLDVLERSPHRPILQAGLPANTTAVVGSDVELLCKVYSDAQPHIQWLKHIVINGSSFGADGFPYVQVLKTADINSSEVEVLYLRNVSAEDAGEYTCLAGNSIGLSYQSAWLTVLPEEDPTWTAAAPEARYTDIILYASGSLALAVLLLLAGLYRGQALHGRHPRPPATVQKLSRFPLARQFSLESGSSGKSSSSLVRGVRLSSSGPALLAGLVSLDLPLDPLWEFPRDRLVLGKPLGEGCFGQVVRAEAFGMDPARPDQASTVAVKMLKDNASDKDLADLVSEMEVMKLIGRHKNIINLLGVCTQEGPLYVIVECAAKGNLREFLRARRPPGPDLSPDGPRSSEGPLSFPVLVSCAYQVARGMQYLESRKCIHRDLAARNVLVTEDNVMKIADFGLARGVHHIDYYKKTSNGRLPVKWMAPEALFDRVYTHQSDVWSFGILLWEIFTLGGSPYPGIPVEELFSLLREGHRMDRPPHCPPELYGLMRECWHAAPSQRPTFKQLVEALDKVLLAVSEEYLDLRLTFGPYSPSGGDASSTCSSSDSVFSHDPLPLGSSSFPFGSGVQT
compound,measurement,value
CN(C(=O)CN1CCOCC1)c1ccc2sc3c(-c4cccc5c(=O)cc(N6CC7CCC(C6)O7)oc45)cccc3c2c1 [NU5455],inhibition at 1 µM,-3.1%
